Where a SMILES comes first, the peptide text is derived from it. Bridges are numbered along the chain shown (N, C = ends). [ ]: non-standard residue; d: D form. The star is where a group is joined. hPhe(3,5-F2-4-CF3) = N[C@@H](CCc1cc(F)c(C(F)(F)F)c(F)c1)C(=O)O; hPhe(3-Cl-4-CF3) = N[C@@H](CCc1ccc(C(F)(F)F)c(Cl)c1)C(=O)O; NPrPhe(4-CF3) = CCCN[C@@H](Cc1ccc(C(F)(F)F)cc1)C(=O)O; NMeGly(cPent) = CN[C@H](C(=O)O)C1CCCC1; Pro(4S-Me) = C[C@@H]1CN[C@H](C(=O)O)C1; Hyp = O=C(O)[C@@H]1C[C@@H](O)CN1; NMeD = CN[C@@H](CC(=O)O)C(=O)O; NMeL = CN[C@@H](CC(C)C)C(=O)O; αMeL = CC(C)C[C@](C)(N)C(=O)O; Morpholide = C1CN(*)CCO1; Ac5c = NC1(C(=O)O)CCCC1; Aze = O=C(O)[C@@H]1CCN1; Ac4c = NC1(C(=O)O)CCC1; Sar = CNCC(=O)O
What was measured:
[1] = target: GDP-bound HRAS wild-type protein (Homo sapiens, UniProt P01112); experiment: Binding to HRAS by surface plasmon resonance (SPR), Single Cycle Kinetics
[2] = target: GDP-bound NRAS wild-type protein (Homo sapiens, UniProt P01111); experiment: Binding to NRAS by surface plasmon resonance (SPR), Single Cycle Kinetics
[3] = SPR, GDP-bound HRAS wild-type vs GDP-bound KRAS wild-type
[4] = SPR, GDP-bound NRAS wild-type vs GDP-bound KRAS wild-type
[5] = KD ratio, GDP-bound HRAS wild-type vs GDP-bound KRAS wild-type, SPR
[6] = KD ratio, GDP-bound NRAS wild-type vs GDP-bound KRAS wild-type, SPR

Sequence of GDP-bound NRAS wild-type protein (P01111 whole entry): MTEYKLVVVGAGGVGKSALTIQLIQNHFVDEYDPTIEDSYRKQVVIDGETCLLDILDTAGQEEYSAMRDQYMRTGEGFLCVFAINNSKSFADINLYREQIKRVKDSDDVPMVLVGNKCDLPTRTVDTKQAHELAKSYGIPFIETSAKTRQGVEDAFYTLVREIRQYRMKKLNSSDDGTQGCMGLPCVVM
Sequence of GDP-bound HRAS wild-type protein (P01112 whole entry): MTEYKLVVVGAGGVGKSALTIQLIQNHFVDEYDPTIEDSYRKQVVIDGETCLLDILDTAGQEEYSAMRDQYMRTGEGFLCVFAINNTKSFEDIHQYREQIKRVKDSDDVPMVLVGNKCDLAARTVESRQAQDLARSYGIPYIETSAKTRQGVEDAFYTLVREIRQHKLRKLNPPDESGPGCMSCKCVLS

CCO[C@@H]1C[C@H]2C(=O)NC3(CCCC3)C(=O)N(C)[C@@H](C3CCCC3)C(=O)N(C)[C@H](C(=O)N(C)C)CC(=O)N(C)[C@@H](CC(C)C)C(=O)N[C@@H]([C@@H](C)CC)C(=O)N(C)CC(=O)N(C)[C@H]3C/C=C\CCN(C3=O)[C@@H](Cc3ccc(C)cc3)C(=O)N(C)CC(=O)N[C@@H](CCc3ccc(C(F)(F)F)c(Cl)c3)C(=O)N2C1 [PP2195]
HRAS/KRAS (ratio of KD value with respect to HRAS to KD value with respect to KRAS) [1, 3]: A (a compound having 10 or more and less than 20 is denoted as A)
NRAS/KRAS (ratio of KD value with respect to NRAS to KD value with respect to KRAS) [2, 4]: A (a compound having 10 or more and less than 20 is denoted as A)

CCO[C@@H]1C[C@H]2C(=O)NC3(CCC3)C(=O)N(C)[C@@H](C3CCCC3)C(=O)N(CCC3CCC3)[C@H](C(=O)N(C)C)CC(=O)N(C)[C@@H](CC)C(=O)N[C@@H]([C@@H](C)CC)C(=O)N(C)CC(=O)N(C)[C@H]3CCCCN(C3=O)[C@@H](Cc3ccc(C(F)(F)F)cc3)C(=O)N(C)CC(=O)N[C@@H](CCc3cc(F)c(C(F)(F)F)c(F)c3)C(=O)N2C1 [PP0645]
HRAS/KRAS (ratio of KD value with respect to GDP-bound HRAS wild-type protein to KD value with respect to KRAS) ([1]; SPR): B (a compound having 3 or more and less than 10 is denoted as B)
NRAS/KRAS (ratio of KD value with respect to GDP-bound NRAS wild-type protein to KD value with respect to KRAS) ([2]; SPR): B (a compound having 3 or more and less than 10 is denoted as B)

CCO[C@@H]1C[C@H]2C(=O)NC3(CCCC3)C(=O)N(C)[C@@H](C3CCCC3)C(=O)N(C)[C@H](C(=O)N3CCOCC3)CC(=O)N(C)[C@@H](CC(C)C)C(=O)N[C@@H]([C@@H](C)CC)C(=O)N(C)CC(=O)N(C)[C@H]3CCCCCN(C3=O)[C@@H](Cc3ccc(F)cc3)C(=O)N(C)CC(=O)N[C@@H](CCc3ccc(C(F)(F)F)c(Cl)c3)C(=O)N2C1 [PP0965]
HRAS/KRAS (ratio of KD value with respect to HRAS to KD value with respect to KRAS) [1, 5]: B (a compound having 3 or more and less than 10 is denoted as B)
NRAS/KRAS (ratio of KD value with respect to NRAS to KD value with respect to KRAS) [2, 6]: B (a compound having 3 or more and less than 10 is denoted as B)

CCCN1C(=O)CN(C)C(=O)[C@@H]2CCN2C(=O)[C@H]([C@@H](C)CC)NC(=O)[C@H](CC(C)C)N(C)C(=O)C[C@@H](C(=O)N2CCOCC2)N(C)C(=O)[C@H](C2CCCC2)N(C)C(=O)[C@](C)(CC(C)C)NC(=O)[C@@H]2CCCN2C(=O)[C@H](CCc2cc(F)c(C(F)(F)F)c(F)c2)NC(=O)CN(C)C(=O)[C@@H]1Cc1ccc(C(F)(F)F)cc1 [PP0776] ([NMeL]I[Aze][Sar][NPrPhe(4-CF3)][Sar][hPhe(3,5-F2-4-CF3)]P[αMeL][NMeGly(cPent)][NMeD]-Morpholide; lactam N-11)
HRAS/KRAS (ratio of KD value with respect to GDP-bound HRAS wild-type protein to KD value with respect to KRAS) ([1]; SPR): B (a compound having 3 or more and less than 10 is denoted as B)
NRAS/KRAS (ratio of KD value with respect to GDP-bound NRAS wild-type protein to KD value with respect to KRAS) ([2]; SPR): B (a compound having 3 or more and less than 10 is denoted as B)

CCCN1C(=O)[C@@H]2CCN2C(=O)CN(C)C(=O)[C@H]([C@@H](C)CC)NC(=O)[C@H](CC(C)C)N(C)C(=O)C[C@@H](C(=O)N(C)C)N(C)C(=O)[C@H](C2CCCC2)N(C)C(=O)C2(CCC2)NC(=O)[C@@H]2C[C@@H](OCC)CN2C(=O)[C@H](CCc2ccc(C(F)(F)F)c(Cl)c2)NC(=O)CN(C)C(=O)[C@@H]1Cc1ccc(C(F)(F)F)cc1 [PP0445] ([NMeL]I[Sar][Aze][NPrPhe(4-CF3)][Sar][hPhe(3-Cl-4-CF3)][Hyp](Et)[Ac4c][NMeGly(cPent)][NMeD]-NMe2; lactam N-11)
HRAS/KRAS (ratio of KD value with respect to GDP-bound HRAS wild-type protein to KD value with respect to KRAS) ([1]; SPR): C (A compound having a KD ratio of 0.1 or more and less than 3 is denoted as C)
NRAS/KRAS (ratio of KD value with respect to GDP-bound NRAS wild-type protein to KD value with respect to KRAS) ([2]; SPR): C (A compound having a KD ratio of 0.1 or more and less than 3 is denoted as C)

CCCN1C(=O)CN(C)C(=O)CNC(=O)[C@H]([C@@H](C)CC)NC(=O)[C@H](CC(C)C)N(C)C(=O)C[C@@H](C(=O)N2CCOCC2)N(C)C(=O)[C@H](C2CCCC2)N(C)C(=O)C2(CCCC2)NC(=O)[C@@H]2C[C@H](C)CN2C(=O)[C@H](CCc2ccc(C(F)(F)F)c(Cl)c2)NC(=O)CN(C)C(=O)[C@@H]1Cc1ccc(C(F)(F)F)cc1 [PP0449] ([NMeL]IG[Sar][NPrPhe(4-CF3)][Sar][hPhe(3-Cl-4-CF3)][Pro(4S-Me)][Ac5c][NMeGly(cPent)][NMeD]-Morpholide; lactam N-11)
HRAS/KRAS (ratio of KD value with respect to GDP-bound HRAS wild-type protein to KD value with respect to KRAS) ([1]; SPR): C (A compound having a KD ratio of 0.1 or more and less than 3 is denoted as C)
NRAS/KRAS (ratio of KD value with respect to GDP-bound NRAS wild-type protein to KD value with respect to KRAS) ([2]; SPR): C (A compound having a KD ratio of 0.1 or more and less than 3 is denoted as C)

CCC[C@H]1C(=O)N[C@@H](CC(C)C)C(=O)N(C2CC2)CC(=O)N(C)[C@H]2C/C=C\CCN(C2=O)[C@@H](Cc2ccc(C)cc2)C(=O)N(C)CC(=O)N[C@@H](CCc2ccc(C(F)(F)F)c(OC)c2)C(=O)N2C[C@H](OCC)C[C@H]2C(=O)NC2(CC(C)(C)C2)C(=O)N(C)[C@@H](C2CCCC2)C(=O)N(C)[C@H](C(=O)N(C)C)CC(=O)N1C [PP2510]
HRAS/KRAS (ratio of KD value with respect to HRAS to KD value with respect to KRAS) [1, 3]: B (a compound having 3 or more and less than 10 is denoted as B)
NRAS/KRAS (ratio of KD value with respect to NRAS to KD value with respect to KRAS) [2, 4]: A (a compound having 10 or more and less than 20 is denoted as A)

CCO[C@@H]1C[C@H]2C(=O)NC3(CCC3)C(=O)N(C)[C@@H](C3CCCC3)C(=O)N(C)[C@H](C(=O)N(C)C)CC(=O)N(C)[C@@H](CC)C(=O)N[C@@H]([C@@H](C)CC)C(=O)N3CC[C@H]3C(=O)N(C)[C@H]3C[C@@H](C)CCN(C3=O)[C@@H](Cc3ccc(C(F)(F)F)cc3)C(=O)N(C)CC(=O)N[C@@H](CCc3cc(F)c(C(F)(F)F)c(F)c3)C(=O)N2C1 [PP1021]
HRAS/KRAS (ratio of KD value with respect to HRAS to KD value with respect to KRAS) [1, 5]: B (a compound having 3 or more and less than 10 is denoted as B)
NRAS/KRAS (ratio of KD value with respect to NRAS to KD value with respect to KRAS) [2, 6]: C (A compound having a KD ratio of 0.1 or more and less than 3 is denoted as C)

CCC[C@H]1C(=O)N[C@@H]([C@@H](C)CC)C(=O)N(C2CC2)CC(=O)N(C)[C@H]2C/C=C\CCN(C2=O)[C@@H](Cc2ccc(C(F)(F)F)cc2)C(=O)N(C)CC(=O)N[C@@H](CCc2ccc(C(F)(F)F)c(OC)c2)C(=O)N2C[C@@H](C)C[C@H]2C(=O)N(C)C2(CCC2)C(=O)N(C)[C@@H](C2CCCC2)C(=O)N(C)[C@H](C(=O)N(C)C)CC(=O)N1C [PP2360]
HRAS/KRAS (ratio of KD value with respect to HRAS to KD value with respect to KRAS) [1, 3]: B (a compound having 3 or more and less than 10 is denoted as B)
NRAS/KRAS (ratio of KD value with respect to NRAS to KD value with respect to KRAS) [2, 4]: A (a compound having 10 or more and less than 20 is denoted as A)

CCO[C@@H]1C[C@H]2C(=O)NC3(CC(C)(C)C3)C(=O)N(C)[C@@H](CC(C)(C)C)C(=O)N(C)[C@H](C(=O)N(C)C)CC(=O)N(C)[C@@H](C(C)C)C(=O)N[C@@H]([C@@H](C)CC)C(=O)N(C)CC(=O)N(C)[C@H]3C/C=C\CCN(C3=O)[C@@H](Cc3ccc(C(F)(F)F)cc3)C(=O)N(C)CC(=O)N[C@@H](CCc3ccc(C(F)(F)F)c(OC)c3)C(=O)N2C1 [PP2773]
HRAS/KRAS (ratio of KD value with respect to GDP-bound HRAS wild-type protein to KD value with respect to KRAS) ([1]; class symbols): B (a compound having 3 or more and less than 10 is denoted as B)
NRAS/KRAS (ratio of KD value with respect to GDP-bound NRAS wild-type protein to KD value with respect to KRAS) ([2]; class symbols): B (a compound having 3 or more and less than 10 is denoted as B)

CCO[C@@H]1C[C@H]2C(=O)NC3(CCC3)C(=O)N(C)[C@@H](C3CCCC3)C(=O)N(C)[C@H](C(=O)N(C)C)CC(=O)N(C)[C@@H](CC)C(=O)N[C@@H]([C@@H](C)CC)C(=O)N(C)CC(=O)N(C)[C@H]3C[C@H]4C[C@H]4CN(C3=O)[C@@H](Cc3ccc(C(F)(F)F)cc3)C(=O)N(C)CC(=O)N[C@@H](CCc3cc(F)c(C(F)(F)F)c(F)c3)C(=O)N2C1 [PP0830]
HRAS/KRAS (ratio of KD value with respect to HRAS to KD value with respect to KRAS) [1, 5]: C (A compound having a KD ratio of 0.1 or more and less than 3 is denoted as C)
NRAS/KRAS (ratio of KD value with respect to NRAS to KD value with respect to KRAS) [2, 6]: C (A compound having a KD ratio of 0.1 or more and less than 3 is denoted as C)

CCO[C@@H]1C[C@H]2C(=O)N[C@]3(C)CCCCCC[C@@H](C(=O)N[C@@H]([C@@H](C)CC)C(=O)N(C)CC(=O)N(C)[C@H]4CCCCN(C4=O)[C@@H](Cc4ccc(C(F)(F)F)cc4)C(=O)N(C)CC(=O)N[C@@H](CCc4cc(F)c(C(F)(F)F)c(F)c4)C(=O)N2C1)N(C)C(=O)C[C@@H](C(=O)N1CCOCC1)N(C)C(=O)[C@H](C1CCCC1)N(C)C3=O [PP0992]
HRAS/KRAS (ratio of KD value with respect to HRAS to KD value with respect to KRAS) [1, 5]: B (a compound having 3 or more and less than 10 is denoted as B)
NRAS/KRAS (ratio of KD value with respect to NRAS to KD value with respect to KRAS) [2, 6]: B (a compound having 3 or more and less than 10 is denoted as B)

CCCO[C@@H]1C[C@H]2C(=O)NC3(CCC3)C(=O)N(C)[C@@H](C3CCCC3)C(=O)N(C)[C@H](C(=O)N3CCOCC3)CC(=O)N(C)[C@@H](CC(C)C)C(=O)N[C@@H]([C@@H](C)CC)C(=O)N(C)CC(=O)N(C)[C@H]3CCCCN(C3=O)[C@@H](Cc3ccc(C(F)(F)F)cc3)C(=O)N(C)CC(=O)N[C@@H](CCc3cc(F)c(C(F)(F)F)c(F)c3)C(=O)N2C1 [PP1159]
HRAS/KRAS (ratio of KD value with respect to HRAS to KD value with respect to KRAS) [1, 5]: B (a compound having 3 or more and less than 10 is denoted as B)
NRAS/KRAS (ratio of KD value with respect to NRAS to KD value with respect to KRAS) [2, 6]: C (A compound having a KD ratio of 0.1 or more and less than 3 is denoted as C)

CCC[C@H]1C(=O)N[C@@H]([C@@H](C)CC)C(=O)N(C)CC(=O)N(C)[C@H]2C/C=C\CCN(C2=O)[C@@H](Cc2ccc(C)cc2)C(=O)N(C)CC(=O)N[C@@H](CCc2cc(F)c(C(F)(F)F)c(F)c2)C(=O)N2C[C@@H](C)C[C@H]2C(=O)NC2(CCC2)C(=O)N(C)[C@@H](C2CCCC2)C(=O)N(C)[C@H](C(=O)N(C)CC)CC(=O)N1C [PP1860]
HRAS/KRAS (ratio of KD value for HRAS to KD value for KRAS) [1, 5]: A (a compound having 10 or more and less than 20 is denoted as A)
NRAS/KRAS (ratio of KD value for NRAS to KD value for KRAS) [2, 6]: A (a compound having 10 or more and less than 20 is denoted as A)
